Laboratory results as given in paper PMC10235687, “Venetoclax is a potent hepsin inhibitor that reduces the metastatic and prothrombotic phenotypes of hepsin-expressing colorectal cancer cells” (Frontiers in Molecular Biosciences, 2023).

Molecular target: T1, Hepsin (Homo sapiens, UniProt P05981)
T1 construct: gene HPN; Recombinant hepsin (R&D Systems)
Experiment: Fluorogenic protease assay with recombinant hepsin ([…]) and BOC-Gln-Arg-Arg-AMC ([…]), pH […] h incubation with drug
Format: biochemical

T1 sequence (P05981 45-162 limits assumed): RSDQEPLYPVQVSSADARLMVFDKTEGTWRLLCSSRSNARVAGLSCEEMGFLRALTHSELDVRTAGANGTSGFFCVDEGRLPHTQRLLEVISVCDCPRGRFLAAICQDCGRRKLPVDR
T1 sequence (P05981 163-417 limits assumed): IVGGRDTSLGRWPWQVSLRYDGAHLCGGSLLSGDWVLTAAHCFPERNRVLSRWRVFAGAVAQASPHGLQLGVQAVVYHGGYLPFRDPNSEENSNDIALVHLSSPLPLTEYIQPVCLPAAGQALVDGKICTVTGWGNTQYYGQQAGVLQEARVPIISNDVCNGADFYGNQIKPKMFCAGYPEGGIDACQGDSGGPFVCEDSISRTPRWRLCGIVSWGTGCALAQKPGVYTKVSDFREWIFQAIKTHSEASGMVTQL

## CC1(C)CCC(CN2CCN(c3ccc(C(=O)NS(=O)(=O)c4ccc(NCC5CCOCC5)c([N+](=O)[O-])c4)c(Oc4cnc5[nH]ccc5c4)c3)CC2)=C(c2ccc(Cl)cc2)C1 [Venetoclax]
  IC50: 480 nM
